Laboratory results from publication PMC10648877, “Novel Substituted Azoloazines with Anticoagulant Activity” (International Journal of Molecular Sciences, 2023).

Columns and labels:
[1] = test system: platelet-poor plasma (PPP); assay: Thrombin time (TT), rabbit blood coagulogram in vitro; format: biochemical; conditions: rabbit blood in vitro, 100 μM, M ± m, n = 6
[2] = test system: platelet-poor plasma (PPP); assay: Activated partial thromboplastin time (APTT), rabbit blood coagulogram in vitro; format: biochemical; conditions: 100 μM, M ± m, n = 6;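 also: clotting time read chronometrically on a hemocoagulometer with commercial reagent kits, one of several coagulogram parameters alongside thrombin and prothrombin time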
Description: Test compounds and the reference drug were evaluated at a concentration of 100 μM. Effect on rabbit blood coagulograms in vitro was determined chronometrically with a SOLAR hemocoagulometer (Minsk, Belarus) using commercial kits (Technology-Standard, Barnaul, Russia) as per the manufacturer’s instructions. The following parameters were determined: activated partial thromboplastin time, thrombin time, and prothrombin time.

[3] = test system: platelet-poor plasma (PPP); assay: Prothrombin time (PT), rabbit blood coagulogram in vitro; conditions: 100 μM, M ± m, n = 6;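 also: clotting time read chronometrically on a hemocoagulometer using commercial reagent kits, with dabigatran etexilate at the same concentration as reference anticoagulant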
Description: The study was performed on platelet-poor plasma (PPP) stabilized with a 3.8% sodium citrate solution in a ratio of 9:1 according to the method described in [34]. Dabigatran etexilate (Boehringer Ingelheim Pharma GmbH and Co., Ingelheim am Rhein, Germany) was used as the reference drug. Test compounds and the reference drug were evaluated at a concentration of 100 μM. Effect on rabbit blood coagulograms in vitro was determined chronometrically with a SOLAR hemocoagulometer (Minsk, Belarus) using commercial kits (Technology-Standard, Barnaul, Russia) as per the manufacturer’s instructions. The following parameters were determined: activated partial thromboplastin time, thrombin time, and prothrombin time.

| Compound | TT [1] [s] | APTT [2] [s] | PT [3] [s] | melting point [°C] |
| --- | --- | --- | --- | --- |
| N=C(N)Nc1nnc2nnc(SC3CCCC3)n2n1 [Compound 16b, 6-Guanidino-3-cyclopentylthio-[1,2,4]triazolo[4,3-b][1,2,4,5]tetrazine] | 22.7 ± 1.7 | 24.7 ± 1.2 | 13.9 ± 0.5 | 252 to 253 |
| N=C(N)Nc1nnc2nnc(SCc3cccc(F)c3)n2n1 [Compound 16] | 25.9 ± 1.6 | 26.3 ± 1.1 | 14.1 ± 0.3 | 235 to 237 |
| CCOC(=O)C1=C(C)Nc2ncnn2C1c1ccc(NC(=O)CN)cc1 (stereo not shown) [Compound 10b, Ethyl 7-(4-(2-aminoacetamido)phenyl)-5-methyl-4,7-dihydro-[1,2,4]triazolo[1,5-a]pyrimi-dine-6-carboxy-late] | 27.1 ± 1.4 | 30.6 ± 2.6 | 12.7 ± 0.2 | 270 to 272 |
| CCCCCCCCSc1nnc2nnc(NC(=N)N)nn12 [Compound 16a, 6-Guanidino-3-octylthio-[1,2,4]triazolo[4,3-b][1,2,4,5]tetrazine] | 34.3 ± 4.7 | 29.1 ± 1.4 | 12.2 ± 0.2 | > 260 |
